Measurements from patent US11116721B2, “Pharmaceutical formulations comprising 4-{(1R)-2-[(6-{2-[(2,6-dichlorobenzyl)oxy]ethoxy}hexyl)amino]-1-hydroxyethyl}-2-(hydroxymethyl) phenol” (Glaxo Group Limited, priority 2009, dated 2021).

Columns and labels:
COPD patients = assay: Clinical pharmacology studies of Compound (I) in COPD patients (FEV1); type: in vivo, human; conditions: 100 mcg and 400 mcg, with lactose alone
Text: (§1) Compound (I) as the α-phenylcinnamate salt and the triphenylacetate salt has been studied in a number of clinical pharmacology studies, including single- and repeat-dose studies. In addition, these studies have evaluated Compound (I) with the excipients cellobiose octaacetate and magnesium stearate.
In COPD patients, treatment with 100 mcg and 400 mcg Compound (I) alpha-phenylcinnamate (with lactose alone) achieved a clinically relevant adjusted mean difference from placebo in weighted mean trough FEV1 (22 to 24 hrs) of >100 mL.

asthmatic patients [1] = assay: Clinical pharmacology studies of Compound (I) in asthmatic patients (FEV1); type: in vivo, human; conditions: all doses of Compound (I)
Text: as §1
In one study in asthmatic patients 100 mcg of Compound (I) triphenylacetate formulated with lactose and magnesium stearate has shown a favourable onset of action.

beta-2 adrenoreceptor = assay: Animal and human studies of Compound (I): bronchodilation and safety; type: in vivo
asthmatic patients [2] = assay: Clinical pharmacology studies of Compound (II) in asthmatic patients (FEV1); type: in vivo, human; conditions: doses of from 100 to 400 mcg
Text: Compound (II) has been studied in a number of clinical pharmacology studies, including single- and repeat-dose studies and at a range of doses. In addition, these studies have evaluated Compound (II) with the excipients cellobiose octaacetate and magnesium stearate.

[3] = Studies of Compound (II) in animal models and humans; type: in vivo

## O=C(O)C(=Cc1ccccc1)c1ccccc1.OCc1cc([C@@H](O)CNCCCCCCOCCOCc2c(Cl)cccc2Cl)ccc1O [Compound (I) alpha-phenylcinnamate, 4-{(1R)-2-[(6-{2-[(2,6-dichlorobenzyl)oxy]ethoxy}hexyl)amino]-1-hydroxyethyl}-2-(hydroxymethyl)phenol α-phenylcinnamate]
COPD patients
  adjusted mean difference from placebo in weighted mean trough FEV1 (22 to 24 hrs): > 100 mL

## OCc1cc([C@@H](O)CNCCCCCCOCCOCc2c(Cl)cccc2Cl)ccc1O [Compound (I), 4-{(1R)-2-[(6-{2-[(2,6-dichlorobenzyl)oxy]ethoxy}hexyl)amino]-1-hydroxyethyl}-2-(hydroxymethyl)phenol]
Asthmatic patients [1]
  improvement in trough (24-hour) FEV1 compared to placebo: statistically and clinically significant improvement
beta-2 adrenoreceptor
  bronchodilation: sustained bronchodilation over a 24 hour period
  safety profile: favourable safety profile

## C[C@@H]1CC2C3C[C@H](F)C4=CC(=O)C=C[C@]4(C)[C@@]3(F)[C@@H](O)C[C@]2(C)[C@@]1(OC(=O)c1ccco1)C(=O)SCF (stereo partly drawn) [Compound (II), 6α, 9α-difluoro-17α-[(2-furanylcarbonyl)oxy]-11β-hydroxy-16α-methyl-3-oxo-androsta-1,4-diene-17β-carbothioic acid S-fluoromethyl ester]
Asthmatic patients [2]
  improvement in trough (24-hour) FEV1 compared to placebo: statistically and clinically significant improvement
[3]
  duration of action (inhaled glucocorticosteroid): long acting
